Laboratory results: ChEMBL document CHEMBL1201862, “PubChem BioAssay data set” (2004)
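Values below derive from 48-hour exposures of cells grown in 96-well plates, with endpoints linearly interpolated between the two concentrations bracketing the appropriate inhibition level. The concentration for 50% growth inhibition is given as GI50.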 Active and inactive are the calls of the source. No stated cut-off is given here; in the data, active = GI50 up to about 1.1 µM and inactive = higher.

What was measured:
Test in all cases: growth of human tumour cells (NCI), 48 h
[1] = tested on: OVCAR-5
[2] = tested on: U-251
[3] = tested on: MDA-MB-435
[4] = tested on: HCT-116
[5] = tested on: SNB-75
[6] = tested on: OVCAR-4
[7] = tested on: SK-MEL-2
[8] = tested on: DU-145
[9] = tested on: SN12C
[10] = tested on: MCF7
[11] = tested on: UACC-257
[12] = tested on: HOP-92
[13] = tested on: SNB-19
[14] = tested on: T47D
[15] = tested on: MDA-N
[16] = tested on: OVCAR-3
[17] = tested on: SK-MEL-28
[18] = tested on: Hs-578T
[19] = tested on: A549
[20] = tested on: A498

Structure (SMILES) | GI50 [1] | GI50 [2] | GI50 [3] | GI50 [4] | GI50 [5] | GI50 [6] | GI50 [7] | GI50 [8] | GI50 [9] | GI50 [10] | GI50 [11] | GI50 [12] | GI50 [13] | GI50 [14] | GI50 [15] | GI50 [16] | GI50 [17] | GI50 [18] | GI50 [19] | GI50 [20]
O=S(=O)(O)c1c(Cl)c(Cl)c(O)c2ncccc12 | 16.7 µM (inactive) | 10.8 µM (inactive) | 9.4 µM (inactive) | 5.56 µM (inactive) | 14.3 µM (inactive) | 8.99 µM (inactive) | 12.5 µM (inactive) | 16.6 µM (inactive) | 14 µM (inactive) | 5.04 µM (inactive) | 14.9 µM (inactive) | 18.8 µM (inactive) | 11.8 µM (inactive) | 7.08 µM (inactive) | 14.6 µM (inactive) | 10.7 µM (inactive) | 13 µM (inactive) | 20.2 µM (inactive) | 12.4 µM (inactive) | 1 µM (active)
CCOC(=O)c1cc2cc(N(C(C)=O)C(C)=O)ccc2s1 | 25.1 µM (inactive) | 20.7 µM (inactive) | 37 µM (inactive) | 29.5 µM (inactive) | 10.1 µM (inactive) | 31.3 µM (inactive) | 22.5 µM (inactive) | 23.7 µM (inactive) | 19.7 µM (inactive) | 28.3 µM (inactive) | 40 µM (inactive) | 27.1 µM (inactive) | 36.9 µM (inactive) | 18.3 µM (inactive) | 29.2 µM (inactive) | 30.8 µM (inactive) | 30.8 µM (inactive) | 16.9 µM (inactive) | 36.1 µM (inactive) | 13.8 µM (inactive)
COc1ccc2c(c1)c1ccc3c(c1n2C)C(=O)C=CC3=O | 15.2 µM (inactive) | 12.5 µM (inactive) | 7.96 µM (inactive) | 5.42 µM (inactive) | 31.7 µM (inactive) | 8.38 µM (inactive) | 17.2 µM (inactive) | 9.77 µM (inactive) | 8.38 µM (inactive) | 2.45 µM (inactive) | 10.9 µM (inactive) | 4.95 µM (inactive) | 26 µM (inactive) | 2.21 µM (inactive) | 8.91 µM (inactive) | 8.39 µM (inactive) | 9.55 µM (inactive) | 8.09 µM (inactive) | 29 µM (inactive) | 25.4 µM (inactive)
